Results published in the NIST ThermoML archive (doi:10.1016/j.jct.2013.10.025).
Numbers after ± are expanded uncertainties.

Experiment: xn = mol fraction of the nth substance listed
Settings: 101 kPa, Liquid; for viscosity: Capillary tube (Ostwald / Ubbelohde) method; for speed of sound: Sing-around technique in a fixed-path interferometer; for mass density: Vibrating tube method

SMILES: CCCCCCCCCCO [decan-1-ol] + C1CCOC1
- viscosity (298.15 K, x2 = 0.0503): 9.806 ± 0.37 mPa·s
- viscosity (298.15 K, x2 = 0.1046): 8.47 ± 0.36 mPa·s
- viscosity (298.15 K, x2 = 0.157): 7.201 ± 0.36 mPa·s
- viscosity (298.15 K, x2 = 0.2022): 6.345 ± 0.36 mPa·s
- viscosity (298.15 K, x2 = 0.253): 5.428 ± 0.36 mPa·s
- viscosity (298.15 K, x2 = 0.3057): 4.609 ± 0.36 mPa·s
- viscosity (298.15 K, x2 = 0.4094): 3.343 ± 0.36 mPa·s
- viscosity (298.15 K, x2 = 0.5018): 2.503 ± 0.36 mPa·s
- viscosity (298.15 K, x2 = 0.6038): 1.842 ± 0.36 mPa·s
- viscosity (298.15 K, x2 = 0.7003): 1.366 ± 0.36 mPa·s
- viscosity (298.15 K, x2 = 0.8004): 0.98 ± 0.36 mPa·s
- viscosity (298.15 K, x2 = 0.9043): 0.691 mPa·s
- speed of sound (298.15 K, x2 = 0.0503): 1372.7 ± 1.5 m/s
- speed of sound (298.15 K, x2 = 0.1046): 1368.8 ± 1.5 m/s
- speed of sound (298.15 K, x2 = 0.157): 1365.1 ± 1.5 m/s
- speed of sound (298.15 K, x2 = 0.2022): 1361.8 ± 1.5 m/s
- speed of sound (298.15 K, x2 = 0.253): 1357.5 ± 1.5 m/s
- speed of sound (298.15 K, x2 = 0.3057): 1352.6 ± 1.5 m/s
- speed of sound (298.15 K, x2 = 0.4094): 1343.7 ± 1.5 m/s
- speed of sound (298.15 K, x2 = 0.5018): 1334 ± 1.5 m/s
- speed of sound (298.15 K, x2 = 0.6038): 1323.4 ± 1.5 m/s
- speed of sound (298.15 K, x2 = 0.7003): 1312.4 ± 1.5 m/s
- speed of sound (298.15 K, x2 = 0.8004): 1299.3 ± 1.5 m/s
- speed of sound (298.15 K, x2 = 0.9043): 1286.4 ± 1.5 m/s
- mass density (298.15 K, x2 = 0.0503): 827.6 ± 0.24 kg/m3
- mass density (298.15 K, x2 = 0.1046): 828.949 ± 0.24 kg/m3
- mass density (298.15 K, x2 = 0.157): 830.327 ± 0.24 kg/m3
- mass density (298.15 K, x2 = 0.2022): 831.593 ± 0.24 kg/m3
- mass density (298.15 K, x2 = 0.253): 833.093 ± 0.24 kg/m3
- mass density (298.15 K, x2 = 0.3057): 834.766 ± 0.24 kg/m3
- mass density (298.15 K, x2 = 0.4094): 838.49 ± 0.24 kg/m3
- mass density (298.15 K, x2 = 0.5018): 842.347 ± 0.24 kg/m3
- mass density (298.15 K, x2 = 0.6038): 847.354 ± 0.24 kg/m3
- mass density (298.15 K, x2 = 0.7003): 853.111 ± 0.24 kg/m3
- mass density (298.15 K, x2 = 0.8004): 860.53 ± 0.24 kg/m3
- mass density (298.15 K, x2 = 0.9043): 870.265 ± 0.23 kg/m3
- viscosity (303.15 K, x2 = 0.0503): 8.074 ± 0.36 mPa·s
- viscosity (303.15 K, x2 = 0.1046): 7.037 ± 0.36 mPa·s
- viscosity (303.15 K, x2 = 0.157): 6.17 ± 0.36 mPa·s
- viscosity (303.15 K, x2 = 0.2022): 5.262 ± 0.36 mPa·s
- viscosity (303.15 K, x2 = 0.253): 4.527 ± 0.36 mPa·s
- viscosity (303.15 K, x2 = 0.3057): 3.958 ± 0.36 mPa·s
- viscosity (303.15 K, x2 = 0.4094): 2.908 ± 0.36 mPa·s
- viscosity (303.15 K, x2 = 0.5018): 2.095 ± 0.36 mPa·s
- viscosity (303.15 K, x2 = 0.6038): 1.635 ± 0.36 mPa·s
- viscosity (303.15 K, x2 = 0.7003): 1.224 ± 0.36 mPa·s
- viscosity (303.15 K, x2 = 0.8004): 0.907 ± 0.36 mPa·s
- viscosity (303.15 K, x2 = 0.9043): 0.649 mPa·s
- speed of sound (303.15 K, x2 = 0.0503): 1355.9 ± 1.5 m/s
- speed of sound (303.15 K, x2 = 0.1046): 1351.7 ± 1.5 m/s
- speed of sound (303.15 K, x2 = 0.157): 1348.3 ± 1.5 m/s
- speed of sound (303.15 K, x2 = 0.2022): 1344.4 ± 1.5 m/s
- speed of sound (303.15 K, x2 = 0.253): 1339.9 ± 1.5 m/s
- speed of sound (303.15 K, x2 = 0.3057): 1335 ± 1.5 m/s
- speed of sound (303.15 K, x2 = 0.4094): 1325.7 ± 1.5 m/s
- speed of sound (303.15 K, x2 = 0.5018): 1315.6 ± 1.5 m/s
- speed of sound (303.15 K, x2 = 0.6038): 1304.3 ± 1.5 m/s
- speed of sound (303.15 K, x2 = 0.7003): 1292.6 ± 1.5 m/s
- speed of sound (303.15 K, x2 = 0.8004): 1278.9 ± 1.5 m/s
- speed of sound (303.15 K, x2 = 0.9043): 1264.9 ± 1.5 m/s
- mass density (303.15 K, x2 = 0.0503): 824.137 ± 0.24 kg/m3
- mass density (303.15 K, x2 = 0.1046): 825.438 ± 0.24 kg/m3
- mass density (303.15 K, x2 = 0.157): 826.766 ± 0.24 kg/m3
- mass density (303.15 K, x2 = 0.2022): 827.998 ± 0.24 kg/m3
- mass density (303.15 K, x2 = 0.253): 829.453 ± 0.24 kg/m3
- mass density (303.15 K, x2 = 0.3057): 831.076 ± 0.24 kg/m3
- mass density (303.15 K, x2 = 0.4094): 834.656 ± 0.24 kg/m3
- mass density (303.15 K, x2 = 0.5018): 838.365 ± 0.24 kg/m3
- mass density (303.15 K, x2 = 0.6038): 843.203 ± 0.24 kg/m3
- mass density (303.15 K, x2 = 0.7003): 848.748 ± 0.24 kg/m3
- mass density (303.15 K, x2 = 0.8004): 855.869 ± 0.24 kg/m3
- mass density (303.15 K, x2 = 0.9043): 865.235 ± 0.23 kg/m3
- viscosity (308.15 K, x2 = 0.0503): 6.379 ± 0.36 mPa·s
- viscosity (308.15 K, x2 = 0.1046): 5.67 ± 0.36 mPa·s
- viscosity (308.15 K, x2 = 0.157): 4.969 ± 0.36 mPa·s
- viscosity (308.15 K, x2 = 0.2022): 4.236 ± 0.36 mPa·s
- viscosity (308.15 K, x2 = 0.253): 3.663 ± 0.36 mPa·s
- viscosity (308.15 K, x2 = 0.3057): 3.249 ± 0.36 mPa·s
- viscosity (308.15 K, x2 = 0.4094): 2.385 ± 0.36 mPa·s
- viscosity (308.15 K, x2 = 0.5018): 1.738 ± 0.36 mPa·s
- viscosity (308.15 K, x2 = 0.6038): 1.408 ± 0.36 mPa·s
- viscosity (308.15 K, x2 = 0.7003): 1.04 ± 0.36 mPa·s
- viscosity (308.15 K, x2 = 0.8004): 0.807 ± 0.36 mPa·s
- viscosity (308.15 K, x2 = 0.9043): 0.58 mPa·s
- speed of sound (308.15 K, x2 = 0.0503): 1339.1 ± 1.5 m/s
- speed of sound (308.15 K, x2 = 0.1046): 1335 ± 1.5 m/s
- speed of sound (308.15 K, x2 = 0.157): 1331.1 ± 1.5 m/s
- speed of sound (308.15 K, x2 = 0.2022): 1327 ± 1.5 m/s
- speed of sound (308.15 K, x2 = 0.253): 1322.2 ± 1.5 m/s
- speed of sound (308.15 K, x2 = 0.3057): 1317.2 ± 1.5 m/s
- speed of sound (308.15 K, x2 = 0.4094): 1307.1 ± 1.5 m/s
- speed of sound (308.15 K, x2 = 0.5018): 1296.8 ± 1.5 m/s
- speed of sound (308.15 K, x2 = 0.6038): 1284.4 ± 1.5 m/s
- speed of sound (308.15 K, x2 = 0.7003): 1271.8 ± 1.5 m/s
- speed of sound (308.15 K, x2 = 0.8004): 1257.6 ± 1.5 m/s
- speed of sound (308.15 K, x2 = 0.9043): 1241.5 ± 1.5 m/s
- mass density (308.15 K, x2 = 0.0503): 820.661 ± 0.24 kg/m3
- mass density (308.15 K, x2 = 0.1046): 821.913 ± 0.24 kg/m3
- mass density (308.15 K, x2 = 0.157): 823.195 ± 0.24 kg/m3
- mass density (308.15 K, x2 = 0.2022): 824.389 ± 0.24 kg/m3
- mass density (308.15 K, x2 = 0.253): 825.796 ± 0.24 kg/m3
- mass density (308.15 K, x2 = 0.3057): 827.357 ± 0.24 kg/m3
- mass density (308.15 K, x2 = 0.4094): 830.825 ± 0.24 kg/m3
- mass density (308.15 K, x2 = 0.5018): 834.401 ± 0.24 kg/m3
- mass density (308.15 K, x2 = 0.6038): 839.036 ± 0.24 kg/m3
- mass density (308.15 K, x2 = 0.7003): 844.365 ± 0.24 kg/m3
- mass density (308.15 K, x2 = 0.8004): 851.199 ± 0.24 kg/m3
- mass density (308.15 K, x2 = 0.9043): 860.184 ± 0.24 kg/m3
- speed of sound (313.15 K, x2 = 0.0503): 1322.7 ± 1.5 m/s
- speed of sound (313.15 K, x2 = 0.1046): 1318.3 ± 1.5 m/s
- speed of sound (313.15 K, x2 = 0.157): 1314.4 ± 1.5 m/s
- speed of sound (313.15 K, x2 = 0.2022): 1310.1 ± 1.5 m/s
- speed of sound (313.15 K, x2 = 0.253): 1305.7 ± 1.5 m/s
- speed of sound (313.15 K, x2 = 0.3057): 1300.1 ± 1.5 m/s
- speed of sound (313.15 K, x2 = 0.4094): 1289.6 ± 1.5 m/s
- speed of sound (313.15 K, x2 = 0.5018): 1278.9 ± 1.5 m/s
- speed of sound (313.15 K, x2 = 0.6038): 1266.3 ± 1.5 m/s
- speed of sound (313.15 K, x2 = 0.7003): 1253.2 ± 1.5 m/s
- speed of sound (313.15 K, x2 = 0.8004): 1238.4 ± 1.5 m/s
- speed of sound (313.15 K, x2 = 0.9043): 1221.6 ± 1.5 m/s
- mass density (313.15 K, x2 = 0.0503): 817.16 ± 0.24 kg/m3
- mass density (313.15 K, x2 = 0.1046): 818.367 ± 0.24 kg/m3
- mass density (313.15 K, x2 = 0.157): 819.603 ± 0.24 kg/m3
- mass density (313.15 K, x2 = 0.2022): 820.753 ± 0.24 kg/m3
- mass density (313.15 K, x2 = 0.253): 822.116 ± 0.24 kg/m3
- mass density (313.15 K, x2 = 0.3057): 823.62 ± 0.24 kg/m3
- mass density (313.15 K, x2 = 0.4094): 826.953 ± 0.24 kg/m3
- mass density (313.15 K, x2 = 0.5018): 830.393 ± 0.24 kg/m3
- mass density (313.15 K, x2 = 0.6038): 834.849 ± 0.24 kg/m3
- mass density (313.15 K, x2 = 0.7003): 839.96 ± 0.24 kg/m3
- mass density (313.15 K, x2 = 0.8004): 846.506 ± 0.24 kg/m3
- mass density (313.15 K, x2 = 0.9043): 855.097 ± 0.24 kg/m3
